Each molecule was assayed against T1, HCV NS5B RdRp genotype 1b (Hepatitis C virus genotype 1b, UniProt Q9WMX2) (assay: Modified HCV NS5B RdRp enzyme assay (with preincubation)). Conditions: modified method (with preincubation).
T1 construct: The protein was expressed with an 18 amino acid C-terminal truncation to enhance the solubility; made in house; host or cells: E. coli BL21 (DE3), pET21a
T1 sequence (Q9WMX2 2420-2992): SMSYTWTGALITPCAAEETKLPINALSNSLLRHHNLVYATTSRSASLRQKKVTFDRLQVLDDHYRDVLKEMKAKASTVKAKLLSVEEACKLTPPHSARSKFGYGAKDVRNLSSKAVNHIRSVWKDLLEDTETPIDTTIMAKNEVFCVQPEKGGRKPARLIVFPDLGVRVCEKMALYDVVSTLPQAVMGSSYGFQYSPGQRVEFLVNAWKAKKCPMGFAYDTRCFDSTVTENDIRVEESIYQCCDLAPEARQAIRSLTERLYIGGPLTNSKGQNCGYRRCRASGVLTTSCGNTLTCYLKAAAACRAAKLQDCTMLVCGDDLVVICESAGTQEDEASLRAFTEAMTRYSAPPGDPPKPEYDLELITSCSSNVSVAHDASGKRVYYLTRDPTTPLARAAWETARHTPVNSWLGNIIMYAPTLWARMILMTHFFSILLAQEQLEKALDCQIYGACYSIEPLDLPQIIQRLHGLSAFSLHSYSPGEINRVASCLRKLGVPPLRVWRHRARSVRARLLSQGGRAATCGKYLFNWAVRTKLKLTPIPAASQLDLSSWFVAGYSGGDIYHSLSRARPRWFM
Type: biochemical
Procedure: HCVNS5B RdRp cloning, expression, and purification. The cDNA encoding the NS5B protein of HCV, genotype 1b, was cloned into the pET21a expression vector. The protein was expressed with an 18 amino acid C-terminal truncation to enhance the solubility. The E. coli competent cell line BL21 (DE3) was used for expression of the protein. Cultures were grown at 37° C. for ˜4 hours until the cultures reached an optical density of 2.0 at 600 nm. The cultures were cooled to 20° C. and induced with 1 mM IPTG. Fresh ampicillin was added to a final concentration of 50 μg/ml and the cells were grown overnight at 20° C.
Cell pellets (3 L) were lysed for purification to yield 15-24 mgs of purified NS5B. The lysis buffer consisted of 20 mM Tris-HCl, pH 7.4, 500 mM NaCl, 0.5% triton X-100, 1 mM DTT, 1 mM EDTA, 20% glycerol, 0.5 mg/ml lysozyme, 10 mM MgCl2, 15 ug/ml deoxyribonuclease I, and Complete TM protease inhibitor tablets (Roche). After addition of the lysis buffer, frozen cell pellets were resuspended using a tissue homogenizer. To reduce the viscosity of the sample, aliquots of the lysate were sonicated on ice using a microtip attached to a Branson sonicator. The sonicated lysate was centrifuged at 100,000×g for 1 hr at 4° C. and filtered through a 0.2 μm filter unit (Corning).
The protein was purified using three sequential chromatography steps: Heparin sepharose CL-6B, polyU sepharose 4B, and Hitrap SP sepharose (Pharmacia). The chromatography buffers were identical to the lysis buffer but contained no lysozyme, deoxyribonuclease I, MgCl2 or protease inhibitor and the NaCl concentration of the buffer was adjusted according to the requirements for charging the protein onto the column. Each column was eluted with a NaCl gradient which varied in length from 5-50 column volumes depending on the column type. After the final chromatography step, the resulting purity of the enzyme is >90% based on SDS-PAGE analysis. The enzyme was aliquoted and stored at −80° C.
Standard HCV NS5B RdRp enzyme assay. HCV RdRp genotype Ib assays were run in a final volume of 60 μl in 96 well plates (Costar 3912). The assay buffer is composed of 20 mM Hepes, pH 7.5, 2.5 mM KCl, 2.5 mM MgCl2, 1 mM DTT, 1.6 U RNAse inhibitor (Promega N2515), 0.1 mg/ml BSA (Promega R3961), and 2% glycerol. All compounds were serially diluted (3-fold) in DMSO and diluted further in water such that the final concentration of DMSO in the assay was 2%. HCV RdRp genotype 1b enzyme was used at a final concentration of 28 nM. A polyA template was used at 6 nM, and a biotinylated oligo-dT12 primer was used at 180 nM final concentration. Template was obtained commercially (Amersham 27-4110). Biotinylated primer was prepared by Sigma Genosys. ^3H-UTP was used at 0.6 μCi (0.29 μM total UTP). Reactions were initiated by the addition of enzyme, incubated at 30° C. for 60 min, and stopped by adding 25 μl of 50 mM EDTA containing SPA beads (4 μg/μl, Amersham RPNQ 0007). Plates were read on a Packard Top Count NXT after >1 hr incubation at room temperature.
Modified HCV NS5B RdRp enzyme assay. A modified enzyme assay was performed essentially as described for the standard enzyme assay except for the following: The biotinylated oligo dT12 primer was precaptured on streptavidin-coated SPA beads by mixing primer and beads in assay buffer and incubating at room temperature for one hour. Unbound primer was removed after centrifugation. The primer-bound beads were resuspended in 20 mM Hepes buffer, pH 7.5 and used in the assay at final concentrations of 20 nM primer and 0.67 μg/μl beads. Order of addition in the assay: enzyme (14 nM) was added to diluted compound followed by the addition of a mixture of template (0.2 nM), ^3H-UTP (0.6 μCi, 0.29 μM), and primer-bound beads, to initiate the reaction; concentrations given are final. Reactions were allowed to proceed for 4 hours at 30° C.
The IC50 values for compounds were determined using seven different [I]. […]
Work on `CN(C)CCNC(=O)C1Cc2ccccc2-c2c(C3CCCCC3)c3ccc(C(=O)NC4(C(=O)Nc5ccc(/C=C/C(=O)O)cc5)CCCC4)cc3n2C1` (centres unmarked) yielded an IC50 of 20 to 1000 nM.
In the case of `CC(C)(C)OC(=O)N1CCn2c(c(C3CCCCC3)c3ccc(C(=O)O)cc32)-c2ccccc21`, the IC50 is reported as 20 to 1000 nM.
`O=C(NS(=O)(=O)C1CC1)c1ccc2c(C3CCCCC3)c3n(c2c1)CC(C(=O)N1CCOCC1)=Cc1ccccc1-3` showed an IC50 of 20 to 1000 nM.
Work on `O=C(NC1(C(=O)Nc2ccc(-c3csc(C(=O)O)n3)cc2)CCCC1)c1ccc2c(C3CCCCC3)c3n(c2c1)CCCc1ccccc1-3` yielded an IC50 of 20 to 1000 nM.
Work on `O=C1Cn2c(c(C3CCCCC3)c3ccc(C(=O)NC4(C(=O)Nc5nccs5)CCCC4)cc32)-c2ccccc2N1` yielded an IC50 of 20 to 1000 nM.
With `COC(=O)C1=Cc2cc(OCc3ccccc3)ccc2-c2c(C3CCCCC3)c3ccc(C(=O)NS(=O)(=O)N(C)C)cc3n2C1` the IC50 was 20 to 1000 nM.
With `COC(=O)c1ccc2c(C3CCCCC3)c3n(c2c1)CC(C(=O)O)=C(C)c1ccccc1-3` the IC50 was greater than 1000 nM.
With `O=C(O)c1ccc2c(C3CCCCC3)c3n(c2c1)CNc1ccccc1-3` the IC50 was 20 to 1000 nM.
`CN1CCN(C(=O)C2Cc3ccccc3-c3c(C4CCCCC4)c4ccc(C(=O)NC5(C(=O)Nc6ccc(/C=C/C(=O)O)cc6)CCCC5)cc4n3C2)CC1` (centres unmarked) showed an IC50 of 20 to 1000 nM.
`O=C(NS(=O)(=O)c1ccccc1)c1ccc2c(C3CCCCC3)c3n(c2c1)CCCc1ncccc1-3` was tested, and the IC50 was 20 to 1000 nM.
With `O=C(O)c1ccc2c(C3CCCCC3)c3c4ccccc4[nH]c(=O)n3c2c1` the IC50 was greater than 1000 nM.
In the case of `N#CC1=Cn2c(c(C3CCCCC3)c3ccc(C(=O)O)cc32)-c2ccccc2C1`, the IC50 is reported as 20 to 1000 nM.

Same assay, conditions: preincubation protocol
`COc1ccc2c(c1)C=C(C(=O)N1CCC[C@H](O)C1)Cn1c-2c(C2CCCCC2)c2ccc(C(=O)NS(=O)(=O)N(C)C)cc21` was tested, and the IC50 was 10 to 1000 nM.
`COc1cccc2c1C=C(C(=O)N1C[C@@H](C)O[C@@H](C)C1)Cn1c-2c(C2CCCCC2)c2ccc(C(=O)NS(=O)(=O)N(C)C)cc21` was tested, and the IC50 was 10 to 1000 nM.
For `COc1ccc2c(c1)C=C(C(=O)N(CCO)CCO)Cn1c-2c(C2CCCCC2)c2ccc(C(=O)NS(=O)(=O)N(C)C)cc21`, the IC50 was less than 20 nM.
`C[C@@H]1CN(C(=O)C2=Cc3ccccc3-c3c(C4CCCCC4)c4ccc(C(=O)NC5(C(=O)O)CCCC5)cc4n3C2)C[C@H](C)O1` showed an IC50 of 10 to 1000 nM.

What follows are molecules tested on HCV replicon (assay: HCV replicon FRET assay). Conditions: Hepatitis C virus; FRET assay; read-out: EC50.
Type: cell-based
Procedure: The IC50 values for compounds were determined using seven different [I]. IC50 values were calculated from the inhibition using the formula y=A+((B−A)/(1+((C/x)^D))). FRET Assay Preparation. To perform the HCV FRET screening assay, 96-well cell culture plates were used. The FRET peptide (Anaspec, Inc.) (Taliani et al., Anal. Biochem. 240:60-67 (1996), hereby incorporated by reference in its entirety) contains a fluorescence donor, EDANS, near one end of the peptide and an acceptor, DABCYL, near the other end. The fluorescence of the peptide is quenched by […] resonance energy transfer (RET) between the donor and the acceptor, but as the NS3 protease cleaves the peptide the products are released from RET quenching and the fluorescence of the donor becomes apparent. The assay reagent was made as follows: 5× cell Luciferase cell culture lysis reagent from Promega (#E153A) diluted to 1× with dH2O, NaCl added to 150 mM final, the FRET peptide diluted to 20 uM final from a 2 mM stock.
To prepare plates, HCV replicon cells, with or without a Renilla luciferase reporter gene, were trypsinized and placed into each well of a 96-well plate with titrated test compounds added in columns 3 through 12; columns 1 and 2 contained a control compound (HCV protease inhibitor), and the bottom row contained cells without compound. The plates were then placed in a CO2 incubator at 37 degrees C.
Assays. Subsequent to addition of the test compounds described above (FRET Assay Preparation), at various times the plate was removed and Alamar blue solution (Trek Diagnostics, #00-100) was added per well as a measure of cellular toxicity. After reading in a Cytoflour 4000 instrument (PE Biosystems), plates were rinsed with PBS and then used for FRET assay by the addition of 30 ul of the FRET peptide assay reagent described above (FRET Assay Preparation) per well. The plate was then placed into the Cytoflour 4000 instrument which had been set to 340 excite/490 emission, automatic mode for 20 cycles and the plate read in a kinetic mode. Typically, the signal to noise using an endpoint analysis after the reads was at least three-fold. Alternatively, after Alamar blue reading, plates were rinsed with PBS, 50 ul of DMEM (high glucose) without phenol red was added and plates were then used for luciferase assay using the Promega Dual-Glo Luciferase Assay System.
Compound analysis was determined by quantification of the relative HCV replicon inhibition and the relative cytotoxicity values. To calculate cytoxicity values, the average Alamar Blue fluorescence signals from the control wells were set as 100% non-toxic. The individual signals in each of the compound test wells were then divided by the average control signal and multiplied by 100% to determine […]. To calculate the HCV replicon inhibition values, an average background value was obtained from the two wells containing the highest amount of HCV protease inhibitor at the end of the assay period. These numbers were similar to those obtained from naïve Huh-7 cells.
The background numbers were then subtracted from the average signal obtained from the control wells and this number was used as 100% activity. The individual signals in each of the compound test wells were then divided by the averaged control values after background subtraction and multiplied by 100% to determine percent activity. EC50 values for a protease inhibitor titration were calculated as the concentration which caused a 50% reduction in FRET or luciferase activity. The two numbers generated for the compound plate, percent cytoxicity and percent activity were used to determine compounds of interest for further analysis.
`COc1ccc2c(c1)C=C(C(=O)N1CCC[C@H](O)C1)Cn1c-2c(C2CCCCC2)c2ccc(C(=O)NS(=O)(=O)N(C)C)cc21` showed an EC50 of 50 to 1000 nM.
For `COc1cccc2c1C=C(C(=O)N1C[C@@H](C)O[C@@H](C)C1)Cn1c-2c(C2CCCCC2)c2ccc(C(=O)NS(=O)(=O)N(C)C)cc21`, the EC50 was 50 to 1000 nM.
With `COc1ccc2c(c1)C=C(C(=O)N(CCO)CCO)Cn1c-2c(C2CCCCC2)c2ccc(C(=O)NS(=O)(=O)N(C)C)cc21` the EC50 was 50 to 1000 nM.
In the case of `CN(C)CCNC(=O)C1Cc2ccccc2-c2c(C3CCCCC3)c3ccc(C(=O)NC4(C(=O)Nc5ccc(/C=C/C(=O)O)cc5)CCCC4)cc3n2C1` (centres unmarked), the EC50 is reported as 10 to 1000 nM.
For `CC(C)(C)OC(=O)N1CCn2c(c(C3CCCCC3)c3ccc(C(=O)O)cc32)-c2ccccc21`, the EC50 was 1000 to 10000 nM.
`O=C(NS(=O)(=O)C1CC1)c1ccc2c(C3CCCCC3)c3n(c2c1)CC(C(=O)N1CCOCC1)=Cc1ccccc1-3` was tested, and the EC50 was 10 to 1000 nM.
In the case of `O=C(NC1(C(=O)Nc2ccc(-c3csc(C(=O)O)n3)cc2)CCCC1)c1ccc2c(C3CCCCC3)c3n(c2c1)CCCc1ccccc1-3`, the EC50 is reported as 10 to 1000 nM.
Work on `O=C1Cn2c(c(C3CCCCC3)c3ccc(C(=O)NC4(C(=O)Nc5nccs5)CCCC4)cc32)-c2ccccc2N1` yielded an EC50 of 10 to 1000 nM.
In the case of `COC(=O)C1=Cc2cc(OCc3ccccc3)ccc2-c2c(C3CCCCC3)c3ccc(C(=O)NS(=O)(=O)N(C)C)cc3n2C1`, the EC50 is reported as 10 to 1000 nM.
`C[C@@H]1CN(C(=O)C2=Cc3ccccc3-c3c(C4CCCCC4)c4ccc(C(=O)NC5(C(=O)O)CCCC5)cc4n3C2)C[C@H](C)O1` showed an EC50 of 50 to 1000 nM.
Molecule `COC(=O)c1ccc2c(C3CCCCC3)c3n(c2c1)CC(C(=O)O)=C(C)c1ccccc1-3` has an EC50 of 1000 to 10000 nM.
Work on `O=C(O)c1ccc2c(C3CCCCC3)c3n(c2c1)CNc1ccccc1-3` yielded an EC50 of 10 to 1000 nM.
With `CN1CCN(C(=O)C2Cc3ccccc3-c3c(C4CCCCC4)c4ccc(C(=O)NC5(C(=O)Nc6ccc(/C=C/C(=O)O)cc6)CCCC5)cc4n3C2)CC1` (centres unmarked) the EC50 was 10 to 1000 nM.
For `O=C(NS(=O)(=O)c1ccccc1)c1ccc2c(C3CCCCC3)c3n(c2c1)CCCc1ncccc1-3`, the EC50 was 1000 to 10000 nM.
Work on `O=C(O)c1ccc2c(C3CCCCC3)c3c4ccccc4[nH]c(=O)n3c2c1` yielded an EC50 of 10 to 1000 nM.
For `N#CC1=Cn2c(c(C3CCCCC3)c3ccc(C(=O)O)cc32)-c2ccccc2C1`, the EC50 was 1000 to 10000 nM.

Source: patent publication US7348425B2, “Inhibitors of HCV replication” (Bristol-Myers Squibb Company, priority 2004, dated 2008)
